Test results reported in the NIST ThermoML archive (doi:10.1016/j.jct.2005.04.018).

Conditions: Liquid; for speed of sound: Linear variable-path acoustic interferometer; for mass density: Vibrating tube method

CCCC[n+]1ccn(C)c1.O=S(=O)([N-]S(=O)(=O)C(F)(F)F)C(F)(F)F
Conditions | mass density [kg/m3] | speed of sound [m/s]
283.15 K, 100 kPa | – | 1264.5
283.15 K, 5090 kPa | – | 1280.8
283.15 K, 9980 kPa | – | 1296.8
283.15 K, 20020 kPa | – | 1327.9
283.15 K, 29950 kPa | – | 1357.3
283.15 K, 44830 kPa | – | 1398.7
283.15 K, 59710 kPa | – | 1437.5
283.15 K, 79700 kPa | – | 1486.8
283.15 K, 98920 kPa | – | 1531.3
283.15 K, 124410 kPa | – | 1586.6
283.15 K, 151000 kPa | – | 1640.5
293.15 K, 100 kPa | – | 1238.1
293.15 K, 5000 kPa | – | 1254.6
293.15 K, 10020 kPa | – | 1271.2
293.15 K, 20010 kPa | – | 1302.5
293.15 K, 59650 kPa | – | 1411.8
293.15 K, 99720 kPa | – | 1505.9
293.15 K, 151200 kPa | – | 1611.9
298.15 K, 100 kPa | 1437.04 | –
298.15 K, 5000 kPa | 1440.78 | –
298.15 K, 7460 kPa | 1442.64 | –
298.15 K, 9920 kPa | 1444.45 | –
298.15 K, 12380 kPa | 1446.22 | –
298.15 K, 14840 kPa | 1447.99 | –
298.15 K, 17300 kPa | 1449.71 | –
298.15 K, 19760 kPa | 1451.41 | –
298.15 K, 22210 kPa | 1453.09 | –
298.15 K, 24670 kPa | 1454.75 | –
298.15 K, 27130 kPa | 1456.4 | –
298.15 K, 29590 kPa | 1458.04 | –
298.15 K, 32050 kPa | 1459.61 | –
298.15 K, 34510 kPa | 1461.19 | –
298.15 K, 36970 kPa | 1462.78 | –
298.15 K, 39430 kPa | 1464.31 | –
298.15 K, 41880 kPa | 1465.81 | –
298.15 K, 44340 kPa | 1467.33 | –
298.15 K, 46800 kPa | 1468.8 | –
298.15 K, 49260 kPa | 1470.28 | –
298.15 K, 51720 kPa | 1471.69 | –
298.15 K, 54180 kPa | 1473.13 | –
298.15 K, 56640 kPa | 1474.55 | –
298.15 K, 59100 kPa | 1475.94 | –
303.14 K, 100 kPa | 1432.49 | –
303.14 K, 5000 kPa | 1436.13 | –
303.14 K, 7460 kPa | 1437.93 | –
303.14 K, 9920 kPa | 1439.73 | –
303.14 K, 12380 kPa | 1441.51 | –
303.14 K, 14840 kPa | 1443.23 | –
303.14 K, 17300 kPa | 1444.96 | –
303.14 K, 19760 kPa | 1446.65 | –
303.14 K, 22210 kPa | 1448.37 | –
303.14 K, 24670 kPa | 1449.99 | –
303.14 K, 27130 kPa | 1451.64 | –
303.14 K, 29590 kPa | 1453.25 | –
303.14 K, 32050 kPa | 1454.87 | –
303.14 K, 34510 kPa | 1456.47 | –
303.14 K, 36970 kPa | 1458.05 | –
303.14 K, 39430 kPa | 1459.6 | –
303.14 K, 41880 kPa | 1461.17 | –
303.14 K, 44340 kPa | 1462.67 | –
303.14 K, 46800 kPa | 1464.2 | –
303.14 K, 49260 kPa | 1465.69 | –
303.14 K, 51720 kPa | 1467.16 | –
303.14 K, 54180 kPa | 1468.67 | –
303.14 K, 56640 kPa | 1470.14 | –
303.14 K, 59100 kPa | 1471.59 | –
303.15 K, 100 kPa | – | 1217.5
303.15 K, 5030 kPa | – | 1234
303.15 K, 10000 kPa | – | 1250.7
303.15 K, 20030 kPa | – | 1282.8
303.15 K, 59720 kPa | – | 1393.5
303.15 K, 98960 kPa | – | 1485.9
303.15 K, 150840 kPa | – | 1592.9
308.09 K, 100 kPa | 1427.92 | –
308.09 K, 5000 kPa | 1431.5 | –
308.09 K, 7460 kPa | 1433.28 | –
308.09 K, 9920 kPa | 1435.07 | –
308.09 K, 12380 kPa | 1436.81 | –
308.09 K, 14840 kPa | 1438.55 | –
308.09 K, 17300 kPa | 1440.27 | –
308.09 K, 19760 kPa | 1441.96 | –
308.09 K, 22210 kPa | 1443.64 | –
308.09 K, 24670 kPa | 1445.32 | –
308.09 K, 27130 kPa | 1446.94 | –
308.09 K, 29590 kPa | 1448.61 | –
308.09 K, 32050 kPa | 1450.21 | –
308.09 K, 34510 kPa | 1451.8 | –
308.09 K, 36970 kPa | 1453.43 | –
308.09 K, 39430 kPa | 1454.99 | –
308.09 K, 41880 kPa | 1456.59 | –
308.09 K, 44340 kPa | 1458.14 | –
308.09 K, 46800 kPa | 1459.69 | –
308.09 K, 49260 kPa | 1461.21 | –
308.09 K, 51720 kPa | 1462.74 | –
308.09 K, 54180 kPa | 1464.26 | –
308.09 K, 56640 kPa | 1465.8 | –
308.09 K, 59100 kPa | 1467.28 | –
313.15 K, 100 kPa | 1422.99 | 1194.5
313.15 K, 5000 kPa | 1426.56 | –
313.15 K, 5010 kPa | – | 1211.5
313.15 K, 7460 kPa | 1428.4 | –
313.15 K, 9920 kPa | 1430.14 | –
313.15 K, 10010 kPa | – | 1228.7
313.15 K, 12380 kPa | 1431.97 | –
313.15 K, 14840 kPa | 1433.7 | –
313.15 K, 17300 kPa | 1435.41 | –
313.15 K, 19760 kPa | 1437.1 | –
313.15 K, 19960 kPa | – | 1261.1
313.15 K, 22210 kPa | 1438.8 | –
313.15 K, 24670 kPa | 1440.5 | –
313.15 K, 27130 kPa | 1442.16 | –
313.15 K, 29590 kPa | 1443.8 | –
313.15 K, 32050 kPa | 1445.44 | –
313.15 K, 34510 kPa | 1447.05 | –
313.15 K, 36970 kPa | 1448.67 | –
313.15 K, 39430 kPa | 1450.26 | –
313.15 K, 41880 kPa | 1451.88 | –
313.15 K, 44340 kPa | 1453.41 | –
313.15 K, 46800 kPa | 1455.01 | –
313.15 K, 49260 kPa | 1456.51 | –
313.15 K, 51720 kPa | 1458.07 | –
313.15 K, 54180 kPa | 1459.64 | –
313.15 K, 56640 kPa | 1461.15 | –
313.15 K, 59100 kPa | 1462.71 | –
313.15 K, 59730 kPa | – | 1373.5
313.15 K, 98970 kPa | – | 1466.4
313.15 K, 150890 kPa | – | 1573.2
318.14 K, 100 kPa | 1418.06 | –
318.14 K, 5000 kPa | 1421.63 | –
318.14 K, 7460 kPa | 1423.41 | –
318.14 K, 9920 kPa | 1425.23 | –
318.14 K, 12380 kPa | 1427 | –
318.14 K, 14840 kPa | 1428.76 | –
318.14 K, 17300 kPa | 1430.5 | –
318.14 K, 19760 kPa | 1432.21 | –
318.14 K, 22210 kPa | 1433.93 | –
318.14 K, 24670 kPa | 1435.62 | –
318.14 K, 27130 kPa | 1437.31 | –
318.14 K, 29590 kPa | 1439.01 | –
318.14 K, 32050 kPa | 1440.66 | –
318.14 K, 34510 kPa | 1442.31 | –
318.14 K, 36970 kPa | 1443.93 | –
318.14 K, 39430 kPa | 1445.59 | –
318.14 K, 41880 kPa | 1447.2 | –
318.14 K, 44340 kPa | 1448.84 | –
318.14 K, 46800 kPa | 1450.43 | –
318.14 K, 49260 kPa | 1452.03 | –
318.14 K, 51720 kPa | 1453.64 | –
318.14 K, 54180 kPa | 1455.23 | –
318.14 K, 56640 kPa | 1456.83 | –
318.14 K, 59100 kPa | 1458.39 | –
323.14 K, 100 kPa | 1413.69 | –
323.14 K, 5000 kPa | 1417.31 | –
323.14 K, 7460 kPa | 1419.14 | –
323.14 K, 9920 kPa | 1420.97 | –
323.14 K, 12380 kPa | 1422.8 | –
323.14 K, 14840 kPa | 1424.57 | –
323.14 K, 17300 kPa | 1426.35 | –
323.14 K, 19760 kPa | 1428.11 | –
323.14 K, 22210 kPa | 1429.82 | –
323.14 K, 24670 kPa | 1431.56 | –
323.14 K, 27130 kPa | 1433.26 | –
323.14 K, 29590 kPa | 1434.96 | –
323.14 K, 32050 kPa | 1436.63 | –
323.14 K, 34510 kPa | 1438.32 | –
323.14 K, 36970 kPa | 1439.98 | –
323.14 K, 39430 kPa | 1441.63 | –
323.14 K, 41880 kPa | 1443.28 | –
323.14 K, 44340 kPa | 1444.91 | –
323.14 K, 46800 kPa | 1446.54 | –
323.14 K, 49260 kPa | 1448.18 | –
323.14 K, 51720 kPa | 1449.79 | –
323.14 K, 54180 kPa | 1451.4 | –
323.14 K, 56640 kPa | 1453.01 | –
323.14 K, 59100 kPa | 1454.62 | –
323.15 K, 100 kPa | – | 1172.6
323.15 K, 5050 kPa | – | 1190.2
323.15 K, 10030 kPa | – | 1207.8
323.15 K, 19940 kPa | – | 1241
323.15 K, 59810 kPa | – | 1355.9
323.15 K, 99220 kPa | – | 1450.8
323.15 K, 150840 kPa | – | 1557.4
328.2 K, 100 kPa | 1408.32 | –
328.2 K, 5000 kPa | 1412.04 | –
328.2 K, 7460 kPa | 1413.97 | –
328.2 K, 9920 kPa | 1415.75 | –
328.2 K, 12380 kPa | 1417.61 | –
328.2 K, 14840 kPa | 1419.44 | –
328.2 K, 17300 kPa | 1421.25 | –
328.2 K, 19760 kPa | 1423.05 | –
328.2 K, 22210 kPa | 1424.84 | –
328.2 K, 24670 kPa | 1426.58 | –
328.2 K, 27130 kPa | 1428.34 | –
328.2 K, 29590 kPa | 1430.04 | –
328.2 K, 32050 kPa | 1431.76 | –
328.2 K, 34510 kPa | 1433.46 | –
328.2 K, 36970 kPa | 1435.15 | –
328.2 K, 39430 kPa | 1436.83 | –
328.2 K, 41880 kPa | 1438.52 | –
328.2 K, 44340 kPa | 1440.15 | –
328.2 K, 46800 kPa | 1441.79 | –
328.2 K, 49260 kPa | 1443.46 | –
328.2 K, 51720 kPa | 1445.11 | –
328.2 K, 54180 kPa | 1446.72 | –
328.2 K, 56640 kPa | 1448.35 | –
328.2 K, 59100 kPa | 1449.96 | –
